Measured values from US9079930B2, “Substituted pyrimidines” (MERCK SHARP & DOHME CORP., priority 2011, dated 2015).

These molecules were tested against T1, FLAG-tagged full length PHD2 (Homo sapiens, UniProt Q9GZT9) (assay: PHD2 inhibition assay (time resolved fluorescence, HIF-1α peptide hydroxylation, VHL complex detection)). Conditions: 0.2 μM 2-oxoglutarate, 0.5 μM HIF-1α peptide.
T1 construct: FLAG-tagged full length PHD2 expressed in and purified from baculovirus-infected Sf9 cells; FLAG; made in house; host or cells: baculovirus-infected Sf9 cells
T1 sequence (Q9GZT9 whole entry): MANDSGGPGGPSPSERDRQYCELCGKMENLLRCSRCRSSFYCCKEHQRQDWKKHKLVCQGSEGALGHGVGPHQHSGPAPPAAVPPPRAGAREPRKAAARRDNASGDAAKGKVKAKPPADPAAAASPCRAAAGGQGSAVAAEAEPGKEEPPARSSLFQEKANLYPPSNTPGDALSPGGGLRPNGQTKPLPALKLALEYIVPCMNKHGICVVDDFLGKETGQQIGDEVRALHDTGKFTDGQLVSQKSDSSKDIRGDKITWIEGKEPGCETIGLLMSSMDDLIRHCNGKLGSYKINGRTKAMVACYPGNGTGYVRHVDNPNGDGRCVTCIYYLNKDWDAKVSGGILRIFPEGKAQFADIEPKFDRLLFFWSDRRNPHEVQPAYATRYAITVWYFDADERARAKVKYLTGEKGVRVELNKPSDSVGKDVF
Format: biochemical
Experimental: To each well of a 96-well plate was added 1 μL of test compound in DMSO and 20 μl of assay buffer (50 mM Tris pH 7.4/0.01% Tween-20/0.1 mg/ml bovine serum albumin/10 μM ferrous sulfate/i mM sodium ascorbate/20 μg/ml catalase) containing 0.15 μg/ml FLAG-tagged full length PHD2 expressed in and purified from baculovirus-infected Sf9 cells. After a 30 min preincubation at room temperature, the enzymatic reactions were initiated by the addition of 4 μL of substrates (final concentrations of 0.2 μM 2-oxoglutarate and 0.5 μM HIF-1α peptide biotinyl-DLDLEMLAPYIPMDDDFQL (SEQ ID NO: 1)). After 2 hr at room temperature, the reactions were terminated and signals were developed by the addition of a 25 μL quench/detection mix to a final concentration of 1 mM ortho-phenanthroline, 0.1 mM EDTA, 0.5 nM anti-(His)6 LANCE reagent (Perkin-Elmer Life Sciences), 100 nM AF647-labeled streptavidin (Invitrogen), and 2 μg/ml (His)6-VHL complex (S. Tan (2001) Protein Expr. Purif. 21, 224-234). The ratio of time resolved fluorescence signals at 665 and 620 nm was determined, and percent inhibition was calculated relative to an uninhibited control sample run in parallel.

| Compound | IC50 [nM] |
| --- | --- |
| COc1ccc(C(NC(=O)c2cnc(-c3cccnn3)nc2O)P(=O)(O)O)cc1 (stereo not drawn) [Compound 30-2, (4-Hydroxy-2-(pyridazin-3-yl)pyrimidine-5-carboxamido)(4-methoxyphenyl)methyl phosphonic acid] | 0.5 to 20 |
| CCOC(=O)CNP(=O)(NCC(=O)OCC)c1ccc(C(NC(=O)c2cnc(-c3cccnn3)nc2O)c2ccc(OC)cc2)cc1 (stereo not drawn) [Compound 31-1, Diethyl 2,2′-((4-((4-hydroxy-2-(pyridazin-3-yl)pyrimidine-5-carboxamido)(4-methoxyphenyl)methyl)phenyl)phosphoryl)bis(azanediyl)diacetate] | 0.5 to 20 |
| CCOC(=O)[C@H](C)NP(=O)(N[C@@H](C)C(=O)OCC)c1ccc(C(NC(=O)c2cnc(-c3cccnn3)nc2O)c2ccc(OC)cc2)cc1 (stereo partly drawn) [Compound 31-2, (2S,2′S)-Diethyl 2,2′-((4-((4-hydroxy-2-(pyridazin-3-yl)pyrimidine-5-carboxamido)(4-methoxyphenyl)methyl)phenyl)phosphoryl)bis(azanediyl)dipropanoate] | 0.5 to 20 |
| COc1ccc(C(NC(=O)c2cnc(-c3cccnn3)nc2O)c2ccc(CP(=O)(O)O)cc2)cc1 (stereo not drawn) [Compound 32-1, 4-((4-hydroxy-2-(pyridazin-3-yl)pyrimidine-5-carboxamido)(4-methoxyphenyl)methyl)benzylphosphonic acid] | 0.5 to 20 |
| CC(C)(NC(=O)c1cnc(-c2cccnn2)nc1O)c1ccc(-c2ccc(P(=O)(O)O)cc2)nc1 [Compound 33-1, 4-(5-(2-(4-hydroxy-2-(pyridazin-3-yl)pyrimidine-5-carboxamido)propan-2-yl)pyridine-2-yl)phenylphosphonic acid] | 0.5 to 20 |
| COc1ccc(C(NC(=O)c2cnc(-c3cccnn3)nc2O)c2cccc(P(=O)(O)O)c2)cc1 (stereo not drawn) [Compound 34-1, 3-((4-hydroxy-2-(pyridazin-3-yl)pyrimidine-5-carboxamido)(4-methoxyphenyl)methyl)phenylphosphonic acid] | 0.5 to 20 |

Further lines, results first:

| IC50 [nM] | Compound |
| --- | --- |
| 0.5 to 20 | O=C(NC(c1ccc2ccccc2c1)P(=O)(O)O)c1cnc(-c2cccnn2)nc1O (stereo not drawn) [Compound 30-3, (4-Hydroxy-2-(pyridazin-3-yl)pyrimidine-5-carboxamido)(naphthalen-2-yl)methyl phosphonic acid] |
| 100 to 10000 | O=C(Cc1cccc(P(=O)(O)O)c1)Nc1cnc(-c2cccnn2)nc1O [Compound 35-1, 3-(2-(4-hydroxy-2-(pyridazin-3-yl)pyrimidin-5-ylamino)-2-oxoethyl)phenyl phosphonic acid] |
| 20 to 100 | COc1ccc(C(NC(=O)c2cnc(-c3cccnn3)nc2O)P(=O)(O)O)cc1 (stereo not drawn) [Compound 36-1, (4-Hydroxy-2-(pyridazin-3-yl)pyrimidine-5-carboxamido)(4-methoxyphenyl)methyl phosphonic acid] |
